Converted amounts (≈) assume the structure as drawn.
Conditions: buffer; pH 7.4; 200.0 µM
In the case of COC(=O)/C(=C\c1ccc(O)cc1)c1nc2ccccc2[nH]1, the solubility kinetic is reported as 39.6 µg/mL (≈ 135 µM). With Cc1cc(C)c(NC(=O)C2CC(=O)N(C3CCCC3)C2)c(C)c1 (centres undefined) the solubility kinetic was > 47.2 µg/mL. CC1=C(C(=O)OC2CCCCC2)C(c2ccccc2F)NC(=O)N1 (centres undefined) gave a solubility kinetic of 0.5 µg/mL (≈ 1.5 µM). Molecule O=[N+]([O-])c1ccc(CS(=O)(=O)c2ccc(Cl)cc2)cc1 has a solubility kinetic of 3.4 µg/mL (≈ 10.9 µM). In the case of CN(C)/C(=N\S(=O)(=O)c1ccc(Cl)cc1)c1ccc(F)cc1, the solubility kinetic is reported as > 51.1 µg/mL. Work on CCCCCCCC(=O)NC1=NC(=O)C(C)(C)S1 yielded a solubility kinetic of 5 µg/mL (≈ 18.5 µM). With O=C(O)c1c(-n2cccc2)sc2c1CCCC2 the solubility kinetic was > 37.1 µg/mL. With COc1cccc(C(=O)Nc2cccc3cccnc23)c1OC the solubility kinetic was < 0.3 µg/mL. O=C(NCc1csc(-c2ccccc2)n1)c1cc(F)cc2c1OCOC2 showed a solubility kinetic of 5.7 µg/mL (≈ 15.4 µM). With CC(C)(C)c1ccc(Oc2ccc(NC(=O)c3cccs3)cn2)cc1 the solubility kinetic was 1.3 µg/mL (≈ 3.69 µM). For O=C(c1ccc2nc[nH]c2c1)N1CCc2ccccc2C1, the solubility kinetic was > 41.6 µg/mL. Work on COCc1cc(=O)[nH]c(/N=C(\N)Nc2cccc(Cl)c2)n1 yielded a solubility kinetic of 2.7 µg/mL (≈ 8.77 µM). For Cc1cc2c(cn1)C(CCC#N)(CCC#N)c1ccccc1-2, the solubility kinetic was > 43.1 µg/mL. Molecule Cc1ccc(NC(=S)NCC(C)CSc2ccc(Cl)cc2)cc1 (centres undefined) has a solubility kinetic of 1.1 µg/mL (≈ 3.01 µM). COc1ccc(C(=O)OCC(=O)c2ccc[nH]2)cc1 showed a solubility kinetic of 20.4 µg/mL (≈ 78.7 µM). For CC12CCC(C(=O)Nc3ccc(Br)cn3)(OC1=O)C2(C)C (centres undefined), the solubility kinetic was > 53 µg/mL. For CCCC(C)NC(=O)CN1C(=O)NC2(CCc3ccccc32)C1=O (centres undefined), the solubility kinetic was > 49.4 µg/mL. With Cc1nccn1CCC(=O)Nc1ccc(Cl)cc1 the solubility kinetic was > 39.6 µg/mL. With CCN(CC)CCN1CNC(=S)N(c2ccccc2OC)C1 the solubility kinetic was > 48.4 µg/mL. With CCOc1ncccc1C(=O)Nc1ccc(S(=O)(=O)Nc2cc(C)nc(C)n2)cc1 the solubility kinetic was > 64.1 µg/mL. Molecule CC(Sc1cccc[n+]1[O-])C(=O)Nc1cc(Cl)c(Cl)cc1Cl (centres undefined) has a solubility kinetic of 53.5 µg/mL (≈ 142 µM). In the case of CC(C)(C)C(=O)C1=C(O)C(=O)N(Cc2ccccc2)C1c1ccccc1F (centres undefined), the solubility kinetic is reported as > 55.1 µg/mL. O=C(Nc1nc(-c2cccnc2)cs1)c1ccc([N+](=O)[O-])cc1 gave a solubility kinetic of 3.2 µg/mL (≈ 9.81 µM). Work on COCCNC(=S)N1CCN(Cc2cccc(OC)c2)CC1 yielded a solubility kinetic of 42.5 µg/mL (≈ 131 µM). Cc1ccc(NC(=O)C2CCCN2C(=O)c2cccs2)c(C)c1 (centres undefined) gave a solubility kinetic of 24 µg/mL (≈ 73.1 µM). With O=C(CN1C(=O)CCC1=O)Nc1cccc2c1C(=O)NC2=O the solubility kinetic was > 45.2 µg/mL. With Cc1ccc2nc(-c3ccc(O)cc3)oc2c1 the solubility kinetic was 1.7 µg/mL (≈ 7.55 µM). Work on Cc1cccc(OCc2nc(C#N)c(N3CCCC3)o2)c1 yielded a solubility kinetic of 9.6 µg/mL (≈ 33.9 µM). For CCN(CC(=O)Nc1c(F)cccc1F)C(=O)c1ccc(C#N)cc1, the solubility kinetic was > 51.5 µg/mL. With O=C(O)C1CCN(C(=O)CCc2ccccc2)CC1 the solubility kinetic was > 39.2 µg/mL. With O=S(=O)(NC1CCCCC1N1CCCCC1)c1ccccc1 (centres undefined) the solubility kinetic was > 48.4 µg/mL. In the case of CC(=O)NC(CC(=O)OCC(=O)Nc1cc(S(=O)(=O)N2CCCCC2)ccc1C)c1ccccc1 (centres undefined), the solubility kinetic is reported as > 75.2 µg/mL. Cc1ccc(-c2noc(CNC(=O)c3ccoc3C)n2)cc1 showed a solubility kinetic of 32.6 µg/mL (≈ 110 µM). COc1ccc(-c2oc(=O)n(C)c2-c2ccc(OC)cc2)cc1 gave a solubility kinetic of 17.3 µg/mL (≈ 55.6 µM). With CCN1CCN(C(=O)/C=C/c2ccc(OC)c(OC)c2)CC1 the solubility kinetic was > 45.7 µg/mL. Cc1cccc(C)c1CC(=O)N1CCOCC1 gave a solubility kinetic of 34.6 µg/mL (≈ 148 µM). For O=C(Cn1cnc2ccccc2c1=O)N1CCc2ccccc2C1, the solubility kinetic was > 47.9 µg/mL. In the case of O=C(N/N=C/c1ccoc1)c1ccc(Cl)cc1Cl, the solubility kinetic is reported as > 42.5 µg/mL. Cc1ccsc1CNC1C2CC3CC(C2)CC1C3.Cl (centres undefined) showed a solubility kinetic of 39.9 µg/mL. For COc1ccccc1C(=O)Nc1nc2ccccc2s1, the solubility kinetic was < 0.3 µg/mL. With Cc1ccc(SCC(=O)OCC(=O)NCCc2ccc(S(N)(=O)=O)cc2)c(C)c1 the solubility kinetic was 51.3 µg/mL (≈ 118 µM). In the case of O=C(/C=C/c1ccccc1[N+](=O)[O-])c1ccc(F)cc1, the solubility kinetic is reported as 4.5 µg/mL (≈ 16.6 µM). Work on COC(=O)C1CN(C(=O)COc2ccc(C)cc2)c2ccccc2O1 (centres undefined) yielded a solubility kinetic of 49.1 µg/mL (≈ 144 µM). For CSc1nc(-c2cccs2)c(C#N)c(=O)[nH]1, the solubility kinetic was 37.3 µg/mL (≈ 150 µM). With CC1(C)Cc2nc3sc(C(=O)NCCCO)c(N)c3cc2CO1 the solubility kinetic was > 50.3 µg/mL. For O=C1C2CCCCC2C(=O)N1c1nccs1 (centres undefined), the solubility kinetic was > 35.4 µg/mL. Work on Cn1c(/C=C/c2ccccc2)nc2ccccc2c1=O yielded a solubility kinetic of 2.3 µg/mL (≈ 8.77 µM). With O=C(O)C1CCN(S(=O)(=O)c2ccc(Cl)s2)CC1 the solubility kinetic was > 46.5 µg/mL. With Cc1nn(C)cc1S(=O)(=O)NCc1ccc2c(c1)OCO2 the solubility kinetic was > 46.4 µg/mL. With Cc1ccc(-c2ccc(/C=N/O)o2)cc1[N+](=O)[O-] the solubility kinetic was 3.4 µg/mL (≈ 13.8 µM). For O=C(CN1CCN(c2ccc(F)cc2)CC1)c1ccc(O)cc1O, the solubility kinetic was 12.7 µg/mL (≈ 38.4 µM). In the case of O=C(Nc1ncccn1)c1ccc([N+](=O)[O-])cc1Cl, the solubility kinetic is reported as 27.8 µg/mL (≈ 99.8 µM). For Cc1ccc(C)c(NC(=O)CN(C)C(=O)CC2OC(=O)c3ccccc32)c1 (centres undefined), the solubility kinetic was > 55 µg/mL. With O=C1SC(Cc2ccccc2)C(=O)N1c1ccccc1 (centres undefined) the solubility kinetic was 6.1 µg/mL (≈ 21.5 µM). For CC(OC(=O)/C=C/c1cccc(F)c1)C(=O)NC1CCCCC1C (centres undefined), the solubility kinetic was 1.9 µg/mL (≈ 5.7 µM). For CCCCn1c(O)c(C(C)=NCc2cccnc2)c(=O)[nH]c1=O, the solubility kinetic was > 47.5 µg/mL. In the case of CCCCN1CNC(=S)N(CCc2ccc(OCC)c(OCC)c2)C1, the solubility kinetic is reported as 12.6 µg/mL (≈ 34.5 µM). Work on COc1ccccc1C(=O)NC(CCSC)C(=O)Nc1ccc(C)c(S(=O)(=O)N2CCOCC2)c1 (centres undefined) yielded a solubility kinetic of 19.2 µg/mL (≈ 36.8 µM). Cc1sc(NC(=O)c2c(F)cccc2F)nc1-c1ccccc1 gave a solubility kinetic of 0.6 µg/mL (≈ 1.82 µM).
